Row | Compound | melting point [°C]
1 | OC(CCCCBr)(c1ccc(F)cc1)c1ccc(F)cc1 | 55
2 | CCOC(=O)C(C)(C)Oc1ccc(CCCC(=O)NN(Cc2cc(F)cc(F)c2)C(N)=O)cc1 | 108 to 109
3 | CN(C)CC(c1ccccc1)c1nnc2n1-c1ccc(I)cc1C(c1ccccc1)=NC2 (configuration not stated) | 192 to 194
4 | Cc1nccn1-c1ccc(-c2cnc([C@H](Cc3ccccn3)N(C=O)c3cc4cc(Cl)ccc4o3)n2C)cc1 | 159 to 161
5 | CC1(C)NC(=O)c2cc(OCCBr)ccc2O1 | 190 to 195
6 | CC(=O)c1ccc(OCCCN2CCC(c3noc4cc(F)ccc34)CC2)c(CC(N)=O)c1 | 108 to 110
7 | O=c1[nH]c(C(F)(F)C(F)(F)F)nc2ncc(Br)cc12 | 200 to 202
8 | CCOC(=O)C1=C(N)NC(C)=C(C(=O)OC)C1c1cccc([N+](=O)[O-])c1 (configuration not stated) | 124
9 | O=C(Nc1c(C(O)(C(F)(F)F)C(F)(F)F)ccc2ccccc12)c1ccc(I)cc1 | 189 to 190
10 | O=c1nc(-c2ccccc2)c2cc([N+](=O)[O-])sc2n1CC1CC1 | 216 to 218
11 | O=C(NC[C@H]1CN(c2ccc(C3C=CS(=O)(=O)CC3)cc2)C(=O)O1)C(F)F (some centres not stated) | 135 to 136
12 | CC[C@@H]1N(c2ccc(C#N)c(Cl)c2)C(=O)C[C@]1(C)O | 144 to 146
13 | CCC(O)c1ccc(Cl)c2nc3n(c12)CCCN3c1c(Cl)cc(OC)cc1Cl (configuration not stated) | 206 to 208
14 | O=[N+]([O-])c1cc2c(Nc3ccc(F)c(Cl)c3)ncnc2cc1OC1CCC1 | 235
15 | COc1ccc(-c2ccc3c(c2)C=C(C(=O)Nc2ccc(CN(C)C4CCC5(CC4)OCCO5)cc2)CCS3)cc1 | 198 to 201
16 | Cn1cc(C2=C(c3cn(CCCNc4ncccn4)c4ccccc34)C(=O)NC2=O)c2ccccc21 | 214 to 215
17 | Oc1ccc(-c2cccnc2)cc1 | 195
18 | CC#CCOc1ccc(S(=O)(=O)C(C(=O)NO)C2CCN(C(=O)OC(C)(C)C)CC2)cc1 (configuration not stated) | 80
19 | O=c1cc(-c2ccc3[nH]ncc3c2)oc2ncc(CN3CCOCC3)cc12 | 293
20 | O=C(Cn1cncn1)c1ccc(Cl)cc1 | 151 to 153
21 | Cc1cnc(N2CCN(CC[C@H]3CC[C@H](NC(=O)CC4CCOCC4)CC3)CC2)c2c1OCC2 | 199
22 | CCNC(=N)N1CCc2[nH]cnc2C1CC (configuration not stated) | 275
23 | NC(CCO)C1(c2ccc(Cl)cc2)CCC1 (configuration not stated) | 98 to 99
24 | Oc1ccccc1-c1nc(-c2ccccc2O)n(CC(F)(F)F)n1 | 154 to 156

Row | Compound | melting point [°C]
25 | CC(C)CC1CC(=O)c2cc(CC(=O)O)ccc21 (configuration not stated) | 140 to 142
26 | OCC(CO)c1ccccc1 | 52 to 54
27 | O=C(O)CCCSc1ccccc1O | 77 to 78
28 | Cc1ccc(CC(CNC(=O)C(C)c2ccc(NS(C)(=O)=O)c(Cl)c2)COC(=O)C(C)(C)C)cc1C (configuration not stated) | 127 to 129
29 | CC(N=Cc1ccc(O)cc1)c1ccccc1 (single isomer, unassigned; (-)) | 176 to 178
30 | CCOC(=O)c1cc(OC)c(C(=O)OCC)cc1Br | 61 to 63
31 | O=[N+]([O-])c1cc(OCc2ccccc2)ccc1CCCl | 38 to 40
32 | CN1Cc2c(c3cc(CCCN4CCN(c5nsc6ccccc56)CC4)ccc3[nH]c2=O)C1 | 206 to 208
33 | CCOC(=O)c1c(C)nc2c(nc(C)n2C)c1OCC | 85 to 87
34 | CCCN(CC1CC1)c1nc(C)nc2c1CCCC2(C)c1ccc(Cl)cc1 (configuration not stated) | 171 to 172
35 | CCCCCc1cc2c(nc(O)n2Cc2cccnc2)c(N)n1 | 243 to 245
36 | O=C(Oc1ccccc1)N1C(=O)[C@H](O)[C@@H]1c1ccccc1 | 125 to 126
37 | CCN(CC)CCOc1ccc(Nc2ncc3c(n2)N(C)C(=O)N(c2cc(Cl)ccc2Cl)C3)cc1 | 138
38 | CN(C)c1ccc(C(=O)Nc2ccccc2CCC2CCCCN2C)cc1 (configuration not stated) | 115 to 116
39 | Clc1ccc(-c2coc3ccccc23)cc1 | 56 to 57
40 | Cn1cnc2cc(NC(=O)c3cc4cc(F)ccc4n3Cc3cccc(F)c3)cnc21 | 235 to 236
41 | COc1cc2c(c3c1OC(C)(C)C3)C(c1ccnc(Cl)c1)=NC(C)(C)C2 | 139 to 140
42 | CC(=O)OCc1cc(O)c2c(c1)C(=O)c1cccc(C(C)=O)c1C2=O | 190 to 191
43 | Cc1ccc(C(=O)Nc2ccc(CN3CCN(C)CC3)c(C(F)(F)F)c2)cc1C#Cc1ccc(NC(C)C)nn1 | 67 to 68
44 | [N-]=[N+]=NCc1cccnc1 | 40 to 43
45 | COc1cc(CI)ccc1C12CC3CC(CC(C3)C1)C2 | 143 to 144
46 | Cc1nc(N)sc1-c1ccnc(Nc2cccc(S(=O)(=O)N3CCOCC3)c2)n1 | 215 to 216
47 | CC(C)(C)C1=C(CO)N=NC1=O | 169 to 172
48 | Cc1c(NCC(C)(C)NC(=O)OC(C)(C)C)c([N+](=O)[O-])c2nnnn2c1C | 153 to 155

Row | Compound | melting point [°C]
49 | CCCC(=O)Nc1n[nH]c2cc(C(F)(F)F)ccc12 | 200
50 | OCc1c(C2CC2)nn2ccc3c(c12)CCO3 | 139 to 140
51 | CC(C)(C)c1ccc(Oc2ncnc3cc(-c4ncccc4C(F)(F)F)ccc23)cc1 | 162 to 163
52 | O=C1N(Cc2ccccn2)c2ccccc2C12COc1ccc3c(c12)OCCO3 (configuration not stated) | 132 to 134
53 | COC(=O)[C@@]1(C)Oc2ccccc2N(C)C1=O | 76 to 78
54 | COC(=O)C1=Cc2cc(-c3ccc(OCCOC(C)C)cc3)ccc2N(C=O)CC1 | 107 to 108
55 | N#CCc1cc(Cl)c(C(=O)c2ccc(Cl)cc2)[nH]1 | 194 to 197
56 | O=C(O)C=C[C@H](Cc1ccc(-c2ccccc2)cc1)NCP(=O)(O)O | 231 to 233
57 | Cc1c(Cc2ccccc2)oc2cc(O)c(O)cc12 | 95.5 to 98
58 | CCCOc1nc(N[C@@H](C)Cc2ccccc2)c2cnn(-c3ccccc3)c2n1 | 134 to 136
59 | CCOC(=O)c1cn(-c2ccc(F)cc2C)c2c(C)c([N+](=O)[O-])c(F)cc2c1=O | 207 to 209
60 | COc1ccc(C(=O)c2sc(Nc3ccccc3)nc2NC(=O)Nc2ccc(F)cc2)cc1 | 177 to 178
61 | O=C(O)c1ccc2c(c1)COC2c1ccc(F)cc1 (configuration not stated) | 187 to 190
62 | COC(=O)c1c([N+](=O)[O-])cccc1S(=O)(=O)NC(C)(C)C | 89 to 91
63 | COC(COc1ccc(Oc2ccccc2)cc1)OC | 76.7
64 | CCCCC12CCC3C4CCC(=O)C=C4CCC3C1CCC2(O)CC (configuration not stated) | 78 to 80
65 | CCOC(=O)c1[nH]c(CC)c(CC(C)C)c1C | 94 to 96
66 | CC(C)CCCC(C)C1C=CC2(CC(=O)O)C3=C(CCC12C)C1(C)CCC(O)CC1CC3 (configuration not stated) | 221 to 222
67 | CN1CCC(O)(c2csc3ccccc23)CC1 | 150 to 151
68 | CCOC(=O)C(=O)Nc1ccc(NC(=O)C(=O)OCC)nc1 | 178 to 180
69 | CCCCCCCCc1ccc(C(=S)c2ccc(OCCCC)cc2O)cc1 | 77 to 79
70 | COCOc1cc(OC)c(OCOC)c(CCO)c1OC | 121 to 123

Now from value to compound:

Row | melting point [°C] | Compound
71 | 122 to 123 | CCSc1cc(C)nc(SCC)c1NC(=O)CCCCSc1nc2ccccc2o1
72 | 172 | COc1ccc(CN(C)CCc2ccc(NC(=O)c3cccc4c(=O)c5cccc(OC)c5[nH]c34)cc2)cc1OC
73 | 154 to 155 | CCCn1ncc2c(=O)[nH]c(-c3ccccc3OCC)nc21
74 | 118 to 123 | Cc1ncc([N+](=O)[O-])n1CCN1C(=O)C2CC=CCC2C1=O (configuration not stated)
75 | 150 to 153 | CCOC(=O)c1cn(CCc2ccccc2)c2oc(CN3CCOCC3)cc2c1=O
76 | 97 to 99 | O=C1C(=CO)CSc2c(Cl)cccc21
77 | 134 | COC(=O)NNC(=S)Cc1cc(OC)c(OC)c(OC)c1
78 | 90 to 91 | CCCCCCCNC(=NC#N)Nc1cccnc1
79 | 203 | CC(C)Oc1ccc(-n2c(CC(=O)O)c(C(=O)O)c3cc(Oc4cccc(C(F)(F)F)c4)ccc32)cc1
80 | 77.5 to 78.5 | COc1ccc(C(=O)C23CCCCC2C(=O)O3)cc1 (configuration not stated)
81 | 225 to 227 | O=C(O)Cn1c(=O)n(Cc2ccc(Cl)c(Cl)c2)c(=O)c2ccccc21
82 | 96 to 97 | N#CCCCCCCCCCOc1cccc(C(N)=O)c1
83 | 65 to 70 | COc1ccc(S(=O)(=O)C(CC(=O)NO)Cc2ccc(Oc3ccccc3)cc2)cc1 (configuration not stated)
84 | 156 to 158 | COc1ccc(CNC(=O)C(=O)NCCc2ccccn2)cc1
85 | 170 to 172 | O=C1C(=O)N(Cc2ccc(O)cc2)c2ccc(S(=O)(=O)N3CCC[C@H]3COc3ccccc3)cc21
86 | 151 to 153 | CC(=O)OCCC1CCCN(C(=O)c2ccc(NC(=O)c3ccccc3Cl)nc2)c2ccc(Cl)cc21 (configuration not stated)

Row | melting point [°C] | Compound
87 | 153 to 154 | CN(C)c1cccc2c(S(=O)(=O)Nc3ccc(Cl)nn3)cccc12
88 | 33 to 35 | CCOC(=O)CCCCCOc1ccc(C=O)cc1
89 | 102 to 104 | CCCN(CCC)Cc1ccccc1P(=NC(=O)OCC)(c1ccccc1)c1ccccc1
90 | 100 | O[C@@H]1[C@H](O)[C@H](O)CO[C@H]1n1c(Br)nc2ccc(Cl)cc21
91 | 98 to 101 | O=C1CC=CC(C(=O)O)C1 (configuration not stated)
92 | 120 to 124 | CC(NC(=O)C(CS)Cc1ccccc1)C(=O)O (configuration not stated)
93 | 81.5 to 82.5 | CC(O)c1ccc(C2CCCCC2)cc1 (configuration not stated)
94 | 84 to 85 | O=C(O)CCCCCCCCCCCNC(=O)OCc1ccccc1
95 | 99.8 | NCCN1CCC(Nc2nc3ccccc3[nH]2)CC1
96 | 126 to 128 | N=C(NCC1(c2ccc(Cl)cc2)CC1)NN=Cc1c(Cl)cccc1Cl
97 | 78 to 80 | COc1ccc2c(c1)c(CCl)nn2Cc1ccccc1
98 | 150 to 151 | O=C(Nc1cc(-c2nc(Cc3ccccc3)no2)ccn1)c1ccccc1
99 | 128 to 129 | CCOC(=O)Cn1c(=O)c2cc(CBr)ccc2n(Cc2ccc(Cl)c(Cl)c2)c1=O
100 | 157 to 158 | CC(Cl)C(=O)c1ccc2c(c1)CC(=O)N2 (configuration not stated)
101 | 183 to 186 | Cc1cccc2[nH]c3c(c(C)nn3-c3ccccn3)c(=O)c12
102 | 129 to 132 | CCOC(=O)C1CCc2c(n(C(=O)c3ccc(Cl)cc3)c3ccc(Cl)cc23)C1 (configuration not stated)

Reference: a melting point compilation (Tetko et al.; mined from patent text by program, amines drawn as free bases though some values may be those of a salt)
